Patent publication US20240058387A1, “CULTURE MEDIUM COMPOSITION FOR AMPLIFYING AND MAINTAINING SELF-RENEWAL CAPACITY AND DIFFERENTIATION POTENTIAL OF HSCS AND APPLICATION THEREOF” (EDIGENE (GUANGZHOU) INC., priority 2020, published 2024)

Test system: mobilized peripheral blood-derived CD34+ cells
Test: Cell counting: absolute number of marker-positive cells, comparison with UM171 and SR1
Type: cell-based, human
Details: FIG. 5B; 8 days; AG1296 at 1 μM; UM171 concentration not given
Method: According to the solubility and required solvent indicated in the instructions of the small molecule inhibitor (see Table 1 for the Cat. number of the small molecule inhibitor), the preparation of the small molecule inhibitor stock solution was carried out. Next, the hematopoietic stem cell medium was prepared: SFEM II medium (stem cell, Cat. number: 09655)+50 ng/ml growth factor Flt-3L (PeProtech, Cat. number: 300-100UG)+50 ng/ml growth factor SCF (PeProtech, Cat. number): 300-07-100UG)+50 ng/ml growth factor TPO (PeProtech, Cat. number: 300-18-100UG)+10 ng/ml interleukin IL-6 (PeProtech, Cat. number: 200-06-20UG)+1% bispecific antibody (HyClone, Cat. No.: sv30010). According to the set concentration gradient of the small molecule inhibitor, the stock solution and the basal medium were used to prepare the medium containing different concentrations of the small molecule inhibitor.
First, the prepared medium was added to a 24-well plate (Corning, Cat. number: 3473), 950 μl per well, and placing it in a carbon dioxide incubator (Thermo, model: 3111) to preheat; resuspending the spare umbilical cord Blood-derived HSCs of Example 1 with SFEM 11+50 ng/ml Flt-3L+50 ng/ml SCF+50 ng/ml TPO+10 ng/ml IL-6+1% bispecific antibody, calculating the medium volume to be added according to 50 μl cell suspension per well and 2*10^5/m1 cell density per well. For example, when the final volume of the cell culture solution per well was 1 ml, the total number of cells per well was 2*10^5 cells calculated according to the cell density per well, and the density of the […] of cell suspension supplemented to each well is 4*10^6/ml. The density of the spare HSCs of Example 1 was adjusted to the calculated density of the cell suspension, and adding it; taking out the preheated medium from the incubator, adding 50 μl of the cell suspension to each well, and after mixing, using the microscope (OLYMPUS, model: CKX53) to observe the cells state, and then putting it into an incubator for culturing.
On the mobilized peripheral blood-derived CD34+ cells sorted in Example 1, the screened-out inhibitor AG1296 and literature-reported (Fares I, et al. Science. 2014; Boitano A E, et al. Science. 2010) inhibitors UM171 and SR1 were compared in the same way as Example 2. Eight days after the induction of the small molecule inhibitor, the expression of LT-HSCs cell surface markers (CD34+CD45+CD90+CD45RA−CD38−) was detected by flow cytometry using the same method as in Example 3. After 8 days of culture, 20 μL of cell suspension was taken into a cell counter (Nexcelom, model: Cellometer K2) and counted, and the absolute numbers of the final CD34+ cells and LT-HSCs on […] were calculated (absolute number of cells=total number of cells*stemness ratio).

## Cn1nnc(-c2ccc3c(c2)[nH]c2nc(Cc4ccccc4)nc(NC4CCC(N)CC4)c23)n1 (stereo not shown) [UM171]
  absolute number of CD34+ cells: best effect
